Values joined by “and” are separate entries in the source; they are usually repeats but may differ in a detail not shown here. Equal values may be shown once.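 Cultured in 96-well plates, cells were exposed to test compound for 48 hours across five concentrations. GI50 is the concentration that inhibits growth by half. Definition used: TGI = concentration required for complete inhibition of growth.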
Experiments:
Assay in all cases: NCI tumour cell line growth inhibition, 48 h
[1] = tested on: HCT-15 colon
[2] = tested on: NCI-H460 lung
[3] = tested on: HCT-116 colon
[4] = tested on: SK-MEL-2 melanoma
[5] = tested on: OVCAR-3 ovarian
[6] = tested on: SR leukemia
[7] = tested on: MOLT-4 leukemia
[8] = tested on: K-562 leukemia
[9] = tested on: SF-295 CNS
[10] = tested on: MDA-MB-435

SMILES | GI50 [1] | TGI [1] [µM] | GI50 [2] [µM] | TGI [2] [µM] | GI50 [3] | TGI [3] [µM] | GI50 [4] | TGI [4] | GI50 [5] | TGI [5] [µM] | GI50 [6] [µM] | TGI [6] [µM] | GI50 [7] [µM] | TGI [7] | GI50 [8] | TGI [8] | GI50 [9] [µM] | TGI [9] | GI50 [10] | TGI [10]
COc1cc2c(c(OC)c1OC)-c1ccc(NN(C(=O)c3ccccc3)C(=O)c3ccccc3)c(=O)cc1[C@@H](NC(C)=O)CC2 (tested in a mixture with another compound) | 3.64 µM | 14.9 | 2.98 | 11.2 | 2.95 µM | 8.88 | 3.42 µM | 16.6 µM | 2.8 µM | 13.4 | 3.76 | > 100 | 4.08 | > 100 µM | 4.03 µM | > 100 µM | 3.81 | > 100 µM | – | –
Cc1ccc(NC(=O)CCc2nc(=S)[nH][nH]2)cc1 | – | > 100 | – | > 100 | – | > 100 | – | > 100 µM | – | > 100 | – | > 100 | – | > 100 µM | – | > 100 µM | – | > 100 µM | – | –
CC1(C)CCC(Sc2ccccc2)O1 (configuration not stated) | – | > 100 | – | > 100 | – | > 100 | – | > 100 µM | – | > 100 | – | > 100 | – | > 100 µM | – | > 100 µM | – | > 100 µM | – | –
C=C1C[C@H]2C=Nc3cc(OCCCOc4cc5c(cc4OC)C(=O)N4CC(=C)C[C@H]4C=N5)c(OC)cc3C(=O)N2C1 | 0.0231 µM | – | 0.000277 | 0.544 | – | – | 0.0168 µM and < 0.0128 µM | 0.0347 µM and < 0.0282 µM | – | 0.2 | – | 0.218 | – | 0.00105 µM | – | 3.44 µM | 0.00706 | 0.64 µM | 0.0134 µM and < 0.0148 µM | 0.0339 µM and < 0.215 µM
O=C1Nc2ccc(Br)cc2C12CC(c1ccccc1)=NN2 (configuration not stated) | 3.56 µM | 48.8 | 3.76 | 19.4 | 4.27 µM | 17 | 4.48 µM | 25.6 µM | 3.26 µM | 13.9 | 2.88 | 19.5 | 5.04 | 30.5 µM | 2.84 µM | 31 µM | 2.77 | 9.5 µM | – | –
COC1=C(N)C(=O)c2nc(-c3nc(C(=O)O)c(C)c(-c4ccc(OC)c(OC)c4O)c3N)ccc2C1=O | 0.00144 µM and 0.00832 µM and < 0.01 µM | – | – | – | 0.0139 µM and 0.00357 µM | – | – | – | 0.0283 µM and 0.0169 µM | 0.0395 | – | – | – | 0.0805 µM and 0.0445 µM and < 0.0167 µM | 0.0237 µM and 0.0112 µM and < 0.01 µM | 0.277 µM and 0.102 µM and 0.0281 µM | – | 0.00323 µM and 0.0236 µM and 0.0136 µM | 0.0266 µM and 0.0104 µM | –
Cc1ccc(CNc2ccc(Br)cc2)cc1 | – | 66.1 | – | > 100 | – | > 100 | – | – | – | > 100 | – | > 100 | – | > 100 µM | – | > 100 µM | – | > 100 µM | – | > 100 µM
COc1cc2cc(Oc3ccc(NC(=O)Nc4cc(C(F)(F)F)cc(C(F)(F)F)c4)cc3)c(C)nc2cc1OCCN1CCOCC1 | 1.1 µM | 2.77 | 1.66 | 5.52 | 1.42 µM | 5.33 | 1.74 µM | 6.91 µM | 1.43 µM | 5.28 | – | – | 1.32 | 4.29 µM | 1.41 µM | 5.5 µM | 1.14 | 2.92 µM | 1.9 µM | 6.72 µM
COc1cccc2c1-c1nc(N)c3c(OC)cccc3c1C2=O | – | > 100 | – | – | – | > 100 | – | > 100 µM | – | > 100 | – | > 100 | – | > 100 µM | – | > 100 µM | – | > 100 µM | – | > 100 µM
O=C1CC2OCC=C3CN4CCC56c7ccccc7N1C5C2C3CC46O (configuration not stated) | – | > 100 | – | > 100 | – | > 100 | – | > 100 µM | – | > 100 | – | – | – | > 100 µM | – | > 100 µM | – | > 100 µM | – | > 100 µM
O=C(CS(=O)(=O)c1nc2ccccc2nc1-c1ccccc1)Nc1ccc(F)cc1 | 39.9 µM | > 100 | 88.8 | > 100 | 25.7 µM | > 100 | 51.9 µM | > 100 µM | 30.6 µM | > 100 | – | – | – | – | 3.83 µM | 16.6 µM | > 100 | > 100 µM | 88 µM | > 100 µM
COc1cc([N+](=O)[O-])c(OC)cc1-c1nc2sc(C)c(C)n2c1/C(N)=N/C(=N)N | > 100 µM | > 100 | > 100 | > 100 | > 100 µM | > 100 | – | – | – | – | – | – | > 100 | > 100 µM | – | – | > 100 | > 100 µM | > 100 µM | > 100 µM
COc1cccc(/C=C/C(=O)c2ccc3cc(OC)ccc3c2)c1 | 9.73 µM | 30.8 | 25.2 | > 50 | 9.21 µM | 16.2 | 48.3 µM | > 50 µM | 9.67 µM | 22.8 | 10.1 | > 50 | – | – | 9.13 µM | > 50 µM | 9.58 | 22.1 µM | 7.38 µM | 19 µM

Source: PubChem BioAssay (NCI)
